Data: patent US20260327204A1, “DEGRADERS OF CYCLIN-DEPENDENT KINASE 12/13, COMPOSITIONS, AND USES THEREOF” (ZHEJIANG UNIVERSITY, priority 2023, published 2026)

Experiments:
CDK12 = CDK12 (Homo sapiens, UniProt Q9NYV4); assay: Western blot degradation of CDK12 (Example 2); format: cell-based; set-up: degradation of CDK12/13 protein in leukemia cells KASUMI-1, MV4-11, and Jurkat; endogenous in cells; conditions: DC50 classes, cell line not given; for DC50: read-out: CDK12 degradation Activity
Method: (§1) Western blot was used to determine the degradation of CDK12/13 protein in leukemia cells KASUMI-1, MV4-11, and Jurkat. The two compounds with the best degradation effects were further validated for their ability to degrade CDK12/13 protein in breast cancer cells MDA-MB-231 using a concentration gradient.
(§2) • Cell lines: KASUMI-1, MV4-11, Jurkat, or MDA-MB-231 • Culture medium: DMEM/RIPM-1640+10% Hyclone serum • Compound dissolution method: Compounds were dissolved in DMSO to prepare a 50 mM stock solution, and then diluted to the corresponding concentrations.
(§3) (1) In vitro cell culture: The selected cells were cultured in a 37 °C constant temperature incubator with 5% CO2. Once the cell density reached 70-90%, they were passaged for subsequent experiments.
(§4) (2) Cell seeding: Cells were digested, and the cell suspension was transferred to a 1.5 mL Eppendorf tube. After centrifugation at 1,000 rpm for 5 min, the cells were resuspended in 2 mL of culture medium and counted. The cell suspension was seeded in a 24-well plate at a density of 200,000 cells per well and allowed to adhere for 8-12 h.
(§5) (3) Compound treatment: The 50 mM compound stock solution was diluted with cell culture medium to a final concentration of 0.01 μM-3 μM. Cells were incubated in a 37 °C incubator with 5% CO2 for 3 h-48 h. The DMSO group served as the negative control.
(§6) At the end of the treatment time, the cells were collected and washed once with PBS. An appropriate volume of 4% SDS was added to lyse the cells, and the mixture was sonicated until no longer viscous. After centrifugation at 12,000 rpm at room temperature for 30 min, the supernatant was transferred to a new EP tube for protein quantification.
(§7) The exposure results were quantitatively analyzed using Image J software. First, the grayscale values of the bands were calculated using Image J. Then, the grayscale value of the target protein was divided by the grayscale value of the internal reference protein for normalization. The calculation formula is: […]
(§8) Where A is the grayscale value and D is the degradation rate.
(§9) In the figures, CDK12 and CDK13 are the target proteins under study, and β-Actin and GAPDH are the internal reference proteins. Internal reference proteins are used to indicate the total protein amount in each experimental group for quantitative analysis.

CDK13 = CDK13 (Homo sapiens, UniProt Q14004); assay: Western blot degradation of CDK13 (Example 2); format: cell-based; set-up: degradation of CDK12/13 protein in leukemia cells KASUMI-1, MV4-11, and Jurkat; endogenous in cells; conditions: DC50 classes, cell line not given; for DC50: read-out: CDK13 degradation Activity
CDK13, sequence (Q14004 whole entry): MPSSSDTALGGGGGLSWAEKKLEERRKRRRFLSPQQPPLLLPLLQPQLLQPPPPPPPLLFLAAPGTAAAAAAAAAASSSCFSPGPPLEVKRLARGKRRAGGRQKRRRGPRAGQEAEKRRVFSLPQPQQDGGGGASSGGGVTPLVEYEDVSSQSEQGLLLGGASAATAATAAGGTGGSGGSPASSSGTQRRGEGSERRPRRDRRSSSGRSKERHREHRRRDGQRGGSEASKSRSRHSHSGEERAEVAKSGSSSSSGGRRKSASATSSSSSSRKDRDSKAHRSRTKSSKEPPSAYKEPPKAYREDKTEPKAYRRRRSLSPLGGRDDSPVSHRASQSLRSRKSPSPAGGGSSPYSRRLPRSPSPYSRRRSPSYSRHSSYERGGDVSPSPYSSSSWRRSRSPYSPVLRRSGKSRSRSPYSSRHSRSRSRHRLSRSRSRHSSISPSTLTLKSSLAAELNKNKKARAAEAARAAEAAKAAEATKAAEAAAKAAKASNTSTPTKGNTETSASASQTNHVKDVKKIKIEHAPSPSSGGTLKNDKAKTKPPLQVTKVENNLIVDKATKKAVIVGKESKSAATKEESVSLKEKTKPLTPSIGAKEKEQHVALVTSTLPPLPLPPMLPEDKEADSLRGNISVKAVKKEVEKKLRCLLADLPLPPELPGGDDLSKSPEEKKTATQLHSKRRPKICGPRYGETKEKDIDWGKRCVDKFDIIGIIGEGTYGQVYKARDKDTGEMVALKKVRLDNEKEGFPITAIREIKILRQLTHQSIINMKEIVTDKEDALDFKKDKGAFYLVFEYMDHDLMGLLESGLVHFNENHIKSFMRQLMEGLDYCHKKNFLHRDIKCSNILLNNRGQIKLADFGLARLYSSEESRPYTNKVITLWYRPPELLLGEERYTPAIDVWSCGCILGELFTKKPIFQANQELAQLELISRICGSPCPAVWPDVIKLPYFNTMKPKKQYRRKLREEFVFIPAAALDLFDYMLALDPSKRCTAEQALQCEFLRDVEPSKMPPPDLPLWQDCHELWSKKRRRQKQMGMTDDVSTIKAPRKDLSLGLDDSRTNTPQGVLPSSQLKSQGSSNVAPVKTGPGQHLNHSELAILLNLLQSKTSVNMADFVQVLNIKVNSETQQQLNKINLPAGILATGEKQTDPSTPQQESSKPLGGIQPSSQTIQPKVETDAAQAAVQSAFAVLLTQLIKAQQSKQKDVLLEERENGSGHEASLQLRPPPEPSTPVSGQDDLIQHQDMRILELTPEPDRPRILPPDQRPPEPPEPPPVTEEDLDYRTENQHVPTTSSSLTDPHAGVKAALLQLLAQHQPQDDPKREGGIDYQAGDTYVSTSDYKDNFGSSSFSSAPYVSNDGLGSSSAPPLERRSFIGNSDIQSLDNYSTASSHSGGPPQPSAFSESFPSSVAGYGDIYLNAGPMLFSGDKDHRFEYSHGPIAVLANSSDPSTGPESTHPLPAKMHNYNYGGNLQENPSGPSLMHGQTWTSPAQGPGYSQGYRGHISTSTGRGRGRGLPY
CDK13, sequence (O75909 whole entry partner): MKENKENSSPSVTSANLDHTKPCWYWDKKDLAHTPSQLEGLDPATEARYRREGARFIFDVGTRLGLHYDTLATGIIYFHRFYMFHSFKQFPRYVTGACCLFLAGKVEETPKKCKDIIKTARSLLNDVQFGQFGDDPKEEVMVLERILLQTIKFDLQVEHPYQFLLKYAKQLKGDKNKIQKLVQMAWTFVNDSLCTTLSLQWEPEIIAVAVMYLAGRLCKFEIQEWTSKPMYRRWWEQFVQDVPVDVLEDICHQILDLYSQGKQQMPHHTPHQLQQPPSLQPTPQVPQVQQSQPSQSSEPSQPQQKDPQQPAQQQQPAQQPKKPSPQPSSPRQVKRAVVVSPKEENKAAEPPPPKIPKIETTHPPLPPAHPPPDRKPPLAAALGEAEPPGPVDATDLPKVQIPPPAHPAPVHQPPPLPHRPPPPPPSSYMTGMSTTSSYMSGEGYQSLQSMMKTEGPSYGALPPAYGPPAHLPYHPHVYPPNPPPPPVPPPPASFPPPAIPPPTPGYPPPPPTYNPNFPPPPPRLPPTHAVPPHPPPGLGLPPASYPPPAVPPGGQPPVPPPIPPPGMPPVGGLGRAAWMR
Method: as §1, §2, §3, §4, §5, §6, §7, §8, §9

CDK12, sequence (Q9NYV4 whole entry): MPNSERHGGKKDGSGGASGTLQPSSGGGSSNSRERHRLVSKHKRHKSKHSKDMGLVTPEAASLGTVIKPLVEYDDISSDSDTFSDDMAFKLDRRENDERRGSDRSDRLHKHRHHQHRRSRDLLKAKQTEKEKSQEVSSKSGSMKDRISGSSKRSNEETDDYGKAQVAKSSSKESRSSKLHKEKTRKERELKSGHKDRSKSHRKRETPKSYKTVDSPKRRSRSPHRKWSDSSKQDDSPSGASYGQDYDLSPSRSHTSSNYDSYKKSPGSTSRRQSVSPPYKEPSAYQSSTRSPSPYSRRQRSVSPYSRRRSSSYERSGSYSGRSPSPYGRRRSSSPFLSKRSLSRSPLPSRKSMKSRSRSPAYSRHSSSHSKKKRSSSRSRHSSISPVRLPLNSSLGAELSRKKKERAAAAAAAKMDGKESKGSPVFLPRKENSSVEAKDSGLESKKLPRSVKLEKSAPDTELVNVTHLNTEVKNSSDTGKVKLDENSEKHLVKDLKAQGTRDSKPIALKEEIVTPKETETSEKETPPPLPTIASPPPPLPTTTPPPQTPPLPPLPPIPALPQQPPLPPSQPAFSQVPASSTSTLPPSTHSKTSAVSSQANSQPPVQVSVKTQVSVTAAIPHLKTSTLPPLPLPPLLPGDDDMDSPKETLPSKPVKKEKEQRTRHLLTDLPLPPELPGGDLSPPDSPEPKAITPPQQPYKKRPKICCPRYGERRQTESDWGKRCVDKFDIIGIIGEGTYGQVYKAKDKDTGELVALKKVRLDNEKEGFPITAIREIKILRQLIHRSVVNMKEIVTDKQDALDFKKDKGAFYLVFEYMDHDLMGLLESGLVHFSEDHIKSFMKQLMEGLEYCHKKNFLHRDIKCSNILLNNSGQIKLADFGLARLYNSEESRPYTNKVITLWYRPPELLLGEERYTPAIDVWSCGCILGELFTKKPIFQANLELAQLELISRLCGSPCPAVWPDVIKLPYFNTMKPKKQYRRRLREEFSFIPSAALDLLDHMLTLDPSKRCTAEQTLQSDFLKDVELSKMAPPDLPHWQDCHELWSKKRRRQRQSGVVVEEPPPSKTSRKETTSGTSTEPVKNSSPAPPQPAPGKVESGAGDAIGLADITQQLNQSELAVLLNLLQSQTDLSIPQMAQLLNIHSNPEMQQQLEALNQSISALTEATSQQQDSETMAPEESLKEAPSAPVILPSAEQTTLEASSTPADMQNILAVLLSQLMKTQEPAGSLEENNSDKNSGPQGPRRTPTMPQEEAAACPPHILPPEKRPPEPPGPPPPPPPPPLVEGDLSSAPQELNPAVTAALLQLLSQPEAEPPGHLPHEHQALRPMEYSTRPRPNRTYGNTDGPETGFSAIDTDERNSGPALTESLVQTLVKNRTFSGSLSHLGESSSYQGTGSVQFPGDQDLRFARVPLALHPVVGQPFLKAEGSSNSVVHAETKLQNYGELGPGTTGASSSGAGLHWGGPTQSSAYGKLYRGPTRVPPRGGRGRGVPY
CDK12, sequence (O75909 whole entry partner): as the sequence (O75909 whole entry partner) above

Cc1ncsc1-c1ccc([C@H](C)NC(=O)[C@@H]2C[C@@H](O)CN2C(=O)[C@@H](NC(=O)C2CCN(c3ccc(-c4ccc(N(C(=O)NCc5ccccc5)[C@H]5CC[C@H](Nc6ccc(C#N)cn6)CC5)cc4)cn3)CC2)C(C)(C)C)cc1 [Formula 17]
DC50 (CDK12): 1 to 3 µM | DC50 (CDK13): 0.5 to 1 µM

Cc1ncsc1-c1ccc([C@H](C)NC(=O)[C@@H]2C[C@@H](O)CN2C(=O)[C@@H](NC(=O)CC#CC2CCN(c3ccc(-c4ccc(N(C(=O)NCc5ccccc5)[C@H]5CC[C@H](Nc6ccc(C#N)cn6)CC5)cc4)cn3)CC2)C(C)(C)C)cc1 [Formula 19]
CDK12 degradation Activity (CDK12): − | CDK13 degradation Activity (CDK13): −

Cc1ncsc1-c1ccc([C@H](C)NC(=O)[C@@H]2C[C@@H](O)CN2C(=O)[C@@H](NC(=O)CC#CC2CCN(c3ccc(N(C(=O)NCc4ccccc4)[C@H]4CC[C@H](Nc5ccc(C#N)cn5)CC4)cc3)CC2)C(C)(C)C)cc1 [Formula 20]
DC50 (CDK12): 3 to 10 µM | DC50 (CDK13): 3 to 10 µM

Cc1ncsc1-c1ccc([C@H](C)NC(=O)[C@@H]2C[C@@H](O)CN2C(=O)[C@@H](NC(=O)C2CCN(C(=O)C3CCN(c4ccc(-c5ccc(N(C(=O)NCc6ccccc6)[C@H]6CC[C@H](Nc7ccc(C#N)cn7)CC6)cc5)cn4)CC3)CC2)C(C)(C)C)cc1 [Formula 21]
DC50 (CDK12): 1 to 3 µM | DC50 (CDK13): 1 to 3 µM

Cc1ncsc1-c1ccc([C@H](C)NC(=O)[C@@H]2C[C@@H](O)CN2C(=O)[C@@H](NC(=O)C2CCN(C(=O)C3CCN(c4ccc(N(C(=O)NCc5ccccc5)[C@H]5CC[C@H](Nc6ccc(C#N)cn6)CC5)cc4)CC3)CC2)C(C)(C)C)cc1 [Formula 22]
CDK12 degradation Activity (CDK12): − | CDK13 degradation Activity (CDK13): −

Cc1ncsc1-c1ccc([C@H](C)NC(=O)[C@@H]2C[C@@H](O)CN2C(=O)[C@@H](NC(=O)CC#CC2CN(c3ccc(-c4ccc(N(C(=O)NCc5ccccc5)[C@H]5CC[C@H](Nc6ccc(C#N)cn6)CC5)cc4)cn3)C2)C(C)(C)C)cc1 [Formula 23]
DC50 (CDK12): 3 to 10 µM | CDK13 degradation Activity (CDK13): −

Cc1ncsc1-c1ccc([C@H](C)NC(=O)[C@@H]2C[C@@H](O)CN2C(=O)[C@@H](NC(=O)CC#CC2CN(c3ccc(N(C(=O)NCc4ccccc4)[C@H]4CC[C@H](Nc5ccc(C#N)cn5)CC4)cc3)C2)C(C)(C)C)cc1 [Formula 24]
CDK12 degradation Activity (CDK12): − | CDK13 degradation Activity (CDK13): −

Cc1ncsc1-c1ccc([C@H](C)NC(=O)[C@@H]2C[C@@H](O)CN2C(=O)[C@@H](NC(=O)CN2CCC(C#Cc3ccc(N(C(=O)NCc4ccccc4)[C@H]4CC[C@H](Nc5ccc(C#N)cn5)CC4)cc3)CC2)C(C)(C)C)cc1 [Formula 25]
DC50 (CDK12): 3 to 10 µM | DC50 (CDK13): 3 to 10 µM

Cc1ncsc1-c1ccc([C@H](C)NC(=O)[C@@H]2C[C@@H](O)CN2C(=O)[C@@H](NC(=O)CN2CC(C#Cc3ccc(N(C(=O)NCc4ccccc4)[C@H]4CC[C@H](Nc5ccc(C#N)cn5)CC4)cc3)C2)C(C)(C)C)cc1 [Formula 26]
CDK12 degradation Activity (CDK12): − | CDK13 degradation Activity (CDK13): −

Cc1ncsc1-c1ccc([C@H](C)NC(=O)[C@@H]2C[C@@H](O)CN2C(=O)[C@@H](NC(=O)C2CC3(CC(Nc4ccc(N(C(=O)NCc5ccccc5)[C@H]5CC[C@H](Nc6ccc(C#N)cn6)CC5)cc4)C3)C2)C(C)(C)C)cc1 (stereo partly shown) [Formula 27]
DC50 (CDK12): 3 to 10 µM | CDK13 degradation Activity (CDK13): −

Cc1ncsc1-c1ccc([C@H](C)NC(=O)[C@@H]2C[C@@H](O)CN2C(=O)[C@@H](NC(=O)C2CC3(CC(Nc4ccc(-c5ccc(N(C(=O)NCc6ccccc6)[C@H]6CC[C@H](Nc7ccc(C#N)cn7)CC6)cc5)cn4)C3)C2)C(C)(C)C)cc1 (stereo partly shown) [Formula 28]
DC50 (CDK12): 3 to 10 µM | DC50 (CDK13): 3 to 10 µM

Cc1ncsc1-c1ccc([C@H](C)NC(=O)[C@@H]2C[C@@H](O)CN2C(=O)[C@@H](NC(=O)CC2CN(c3ccc(-c4ccc(N(C(=O)NCc5ccccc5)[C@H]5CC[C@H](Nc6ccc(C#N)cn6)CC5)cc4)cn3)C2)C(C)(C)C)cc1 [Formula 29]
DC50 (CDK12): 3 to 10 µM | CDK13 degradation Activity (CDK13): −

Cc1ncsc1-c1ccc([C@H](C)NC(=O)[C@@H]2C[C@@H](O)CN2C(=O)[C@@H](NC(=O)CC2CCN(c3ccc(-c4ccc(N(C(=O)NCc5ccccc5)[C@H]5CC[C@H](Nc6ccc(C#N)cn6)CC5)cc4)cn3)C2)C(C)(C)C)cc1 (stereo partly shown) [Formula 30]
DC50 (CDK12): 0.5 to 1 µM | DC50 (CDK13): 0.5 to 1 µM

Cc1ncsc1-c1ccc([C@H](C)NC(=O)[C@@H]2C[C@@H](O)CN2C(=O)[C@@H](NC(=O)CN2CCC(n3cc(-c4ccc(N(C(=O)NCc5ccccc5)[C@H]5CC[C@H](Nc6ccc(C#N)cn6)CC5)cc4)cn3)CC2)C(C)(C)C)cc1 [Formula 31]
DC50 (CDK12): 1 to 3 µM | DC50 (CDK13): 3 to 10 µM

N#Cc1ccc(N[C@H]2CC[C@H](N(C(=O)NCc3ccccc3)c3ccc(-c4ccc(OCCOCCNc5cccc6c5C(=O)N(C5CCC(=O)NC5=O)C6=O)nc4)cc3)CC2)nc1 (stereo partly shown) [Formula 32]
DC50 (CDK12): 1 to 3 µM | DC50 (CDK13): 0.5 to 1 µM

N#Cc1ccc(N[C@H]2CC[C@H](N(C(=O)NCc3ccccc3)c3ccc(-c4ccc(OCCOCCOCCOCCOCCNc5cccc6c5C(=O)N(C5CCC(=O)NC5=O)C6=O)nc4)cc3)CC2)nc1 (stereo partly shown) [Formula 35]
DC50 (CDK12): 1 to 3 µM | DC50 (CDK13): 3 to 10 µM

N#Cc1ccc(N[C@H]2CC[C@H](N(C(=O)NCc3ccccc3)c3ccc(-c4ccc(OCCOCCOCCOCCOCCOCCNc5cccc6c5C(=O)N(C5CCC(=O)NC5=O)C6=O)nc4)cc3)CC2)nc1 (stereo partly shown) [Formula 36]
CDK12 degradation Activity (CDK12): − | CDK13 degradation Activity (CDK13): −

N#Cc1ccc(N[C@H]2CC[C@H](N(C(=O)NCc3ccccc3)c3ccc(-c4ccc(OCCNc5cccc6c5C(=O)N(C5CCC(=O)NC5=O)C6=O)nc4)cc3)CC2)nc1 (stereo partly shown) [Formula 37]
DC50 (CDK12): 1 to 3 µM | DC50 (CDK13): 0.5 to 1 µM

N#Cc1ccc(N[C@H]2CC[C@H](N(C(=O)NCc3ccccc3)c3ccc(N4CCN(CCOCCNc5cccc6c5C(=O)N(C5CCC(=O)NC5=O)C6=O)CC4)cc3)CC2)nc1 (stereo partly shown) [Formula 38]
DC50 (CDK12): 0.5 to 1 µM | DC50 (CDK13): 1 to 3 µM

N#Cc1ccc(N[C@H]2CC[C@H](N(C(=O)NCc3ccccc3)c3ccc(N4CCN(CCOCCOCCNc5cccc6c5C(=O)N(C5CCC(=O)NC5=O)C6=O)CC4)cc3)CC2)nc1 (stereo partly shown) [Formula 39]
DC50 (CDK12): 1 to 3 µM | DC50 (CDK13): 3 to 10 µM

N#Cc1ccc(N[C@H]2CC[C@H](N(C(=O)NCc3ccccc3)c3ccc(N4CCN(CCOCCOCCOCCNc5cccc6c5C(=O)N(C5CCC(=O)NC5=O)C6=O)CC4)cc3)CC2)nc1 (stereo partly shown) [Formula 40]
DC50 (CDK12): 0.5 to 1 µM | DC50 (CDK13): 1 to 3 µM

N#Cc1ccc(N[C@H]2CC[C@H](N(C(=O)NCc3ccccc3)c3ccc(N4CCN(CCOCCOCCOCCOCCNc5cccc6c5C(=O)N(C5CCC(=O)NC5=O)C6=O)CC4)cc3)CC2)nc1 (stereo partly shown) [Formula 41]
DC50 (CDK12): 1 to 3 µM | DC50 (CDK13): 1 to 3 µM

N#Cc1ccc(N[C@H]2CC[C@H](N(C(=O)NCc3ccccc3)c3ccc(N4CCN(CCNc5cccc6c5C(=O)N(C5CCC(=O)NC5=O)C6=O)CC4)cc3)CC2)nc1 (stereo partly shown) [Formula 42]
DC50 (CDK12): 1 to 3 µM | DC50 (CDK13): 1 to 3 µM

CCNC(=O)N(c1ccc(-c2ccc(OCCOCCOCCOCCNc3cccc4c3C(=O)N(C3CCC(=O)NC3=O)C4=O)nc2)cc1)[C@H]1CC[C@H](Nc2ccc(C#N)cn2)CC1 (stereo partly shown) [Formula 43]
DC50 (CDK12): 1 to 3 µM | DC50 (CDK13): 1 to 3 µM

CCNC(=O)N(c1ccc(-c2ccc(N3CCN(CC(=O)N[C@H](C(=O)N4C[C@H](O)C[C@H]4C(=O)N[C@@H](C)c4ccc(-c5scnc5C)cc4)C(C)(C)C)CC3)nc2)cc1)[C@H]1CC[C@H](Nc2ccc(C#N)cn2)CC1 [Formula 44]
DC50 (CDK12): 0.5 to 1 µM | DC50 (CDK13): 0.1 to 0.5 µM

N#Cc1ccc(N[C@H]2CC[C@H](N(C(=O)NCc3ccccc3)c3ccc(-c4ccc(=O)n(CCOCCNc5cccc6c5C(=O)N(C5CCC(=O)NC5=O)C6=O)c4)cc3)CC2)nc1 (stereo partly shown) [Formula 46]
DC50 (CDK12): 1 to 3 µM | DC50 (CDK13): 0.5 to 1 µM
